Experimental data published in ChEMBL document CHEMBL2203046, “Discovery of a novel non-steroidal GR antagonist with in vivo efficacy in the olanzapine-induced weight gain model in the rat” (Bioorg Med Chem Lett, 2012).

How the values were obtained:
Glucocorticoid receptor [1] = target: T1, Glucocorticoid receptor (Homo sapiens, UniProt P04150); assay: Antagonist activity at glucocorticoid receptor in human SW1353 cells assessed as inhibition of dexamethasone-induced luciferase expression after 16 hrs by MMTV5 reporter gene assay; type: functional, cell-based
T1 sequence (P04150 whole entry): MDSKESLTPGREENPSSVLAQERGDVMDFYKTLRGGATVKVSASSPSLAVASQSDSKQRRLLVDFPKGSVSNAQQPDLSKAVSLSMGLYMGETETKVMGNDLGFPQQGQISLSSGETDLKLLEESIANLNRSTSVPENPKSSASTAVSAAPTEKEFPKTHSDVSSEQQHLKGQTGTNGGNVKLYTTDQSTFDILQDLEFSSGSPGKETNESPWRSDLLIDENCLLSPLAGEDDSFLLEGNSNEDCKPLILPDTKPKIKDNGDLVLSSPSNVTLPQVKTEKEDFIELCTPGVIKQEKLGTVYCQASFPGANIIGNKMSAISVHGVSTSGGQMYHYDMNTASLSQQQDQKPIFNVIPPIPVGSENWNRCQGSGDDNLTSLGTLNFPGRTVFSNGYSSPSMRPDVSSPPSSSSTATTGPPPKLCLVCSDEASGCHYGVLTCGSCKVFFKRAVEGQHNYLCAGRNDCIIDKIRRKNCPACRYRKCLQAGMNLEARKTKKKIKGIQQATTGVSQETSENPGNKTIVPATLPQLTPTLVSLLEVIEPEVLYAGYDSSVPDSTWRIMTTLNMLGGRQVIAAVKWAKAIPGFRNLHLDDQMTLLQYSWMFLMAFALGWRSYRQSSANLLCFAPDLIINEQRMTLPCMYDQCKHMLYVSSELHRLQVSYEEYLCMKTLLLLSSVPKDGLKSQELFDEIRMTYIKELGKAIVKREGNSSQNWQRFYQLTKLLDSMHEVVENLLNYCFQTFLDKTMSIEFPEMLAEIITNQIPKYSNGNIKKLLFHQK

Glucocorticoid receptor [2] = target: T1, Glucocorticoid receptor; assay: Displacement of [3H]dexamethasone from human recombinant glucocorticoid receptor expressed in baculovirus after 18 hrs by scintillation counting analysis
Rattus norvegicus [3] = assay: Antagonist activity at glucocorticoid receptor in Sprague-Dawley rat assessed as change in olanzapine-induced weight gain at 10 mg/kg/day, po administered as divided doses twice daily for 21 days (Rvb =+ 36.5 +/- 10 g); type: functional
Rattus norvegicus [4] = assay: Antagonist activity at glucocorticoid receptor in Sprague-Dawley rat assessed as change in olanzapine-induced weight gain at 6 mg/kg/day, po administered as divided doses twice daily for 21 days (Rvb =+ 36.5 +/- 10 g); type: functional
Rattus norvegicus [5] = assay: Antagonist activity at glucocorticoid receptor in Sprague-Dawley rat assessed as change in olanzapine-induced weight gain at 2 mg/kg/day, po administered as divided doses twice daily for 21 days (Rvb =+ 36.5 +/- 10 g); type: functional
Rattus norvegicus [6] = assay: Antagonist activity at glucocorticoid receptor in Sprague-Dawley rat assessed as change in olanzapine-induced weight gain at 0.2 mg/kg/day, po administered as divided doses twice daily for 21 days (Rvb =+ 36.5 +/- 10 g); type: functional
Rattus norvegicus [7] = assay: Antagonist activity at glucocorticoid receptor in Sprague-Dawley rat assessed as change in olanzapine-induced weight gain at 0.6 mg/kg/day, po administered as divided doses twice daily for 21 days (Rvb =+ 36.5 +/- 10 g); type: functional
[8] = Plasma protein binding in rat; type: ADME, cell-free; settings: read-out: PPB
[9] = Plasma protein binding in human; type: ADME, cell-free; settings: read-out: PPB
[10] = Half life in rat at 1 mg/kg, iv; type: ADME, organism-based; parameters: dose 1 mg/kg, route intravenous; settings: in vivo
[11] = Oral bioavailability in rat at 5 mg/kg; type: ADME, organism-based; settings: in vivo
[12] = Clearance in rat at 1 mg/kg, iv; type: ADME, organism-based; parameters: dose 1 mg/kg, route intravenous; settings: in vivo
Cytochrome P450 2C19 = Cytochrome P450 2C19 (Homo sapiens, UniProt P33261); assay: Inhibition of human CYP2C19; type: ADME
Liver microsomes [13] = assay: Metabolic stability in human liver microsomes; type: ADME, Microsome
Liver microsomes [14] = assay: Metabolic stability in rat liver microsomes; type: ADME, Microsome
Cytochrome P450 1A2 = target: T2, Cytochrome P450 1A2 (Homo sapiens, UniProt P05177); assay: Inhibition of human CYP1A2; type: ADME
T2 sequence (P05177 whole entry): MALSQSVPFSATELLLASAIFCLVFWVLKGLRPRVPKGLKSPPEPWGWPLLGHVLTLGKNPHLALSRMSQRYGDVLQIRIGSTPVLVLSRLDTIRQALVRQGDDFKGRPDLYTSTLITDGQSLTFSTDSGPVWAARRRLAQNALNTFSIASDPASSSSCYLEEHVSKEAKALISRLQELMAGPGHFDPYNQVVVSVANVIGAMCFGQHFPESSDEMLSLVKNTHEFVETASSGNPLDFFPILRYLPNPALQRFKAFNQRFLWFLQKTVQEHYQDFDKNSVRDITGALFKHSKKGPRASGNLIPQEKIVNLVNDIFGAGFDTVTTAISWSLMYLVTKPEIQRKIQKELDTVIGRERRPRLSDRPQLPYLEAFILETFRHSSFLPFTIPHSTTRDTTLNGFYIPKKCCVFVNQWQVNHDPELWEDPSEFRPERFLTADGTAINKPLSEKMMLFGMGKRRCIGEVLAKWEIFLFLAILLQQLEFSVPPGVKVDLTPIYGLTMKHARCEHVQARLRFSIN

Cytochrome P450 2C9 = Cytochrome P450 2C9 (Homo sapiens, UniProt P11712); assay: Inhibition of human CYP2C9; type: ADME
Cytochrome P450 3A4 = Cytochrome P450 3A4 (Homo sapiens, UniProt P08684); assay: Inhibition of human CYP3A4; type: ADME
Cytochrome P450 2D6 = Cytochrome P450 2D6 (Homo sapiens, UniProt P10635); assay: Inhibition of human CYP2D6; type: ADME
Liver = assay: Metabolic stability in human liver microsomes

Cytochrome P450 2D6, sequence (P10635 whole entry): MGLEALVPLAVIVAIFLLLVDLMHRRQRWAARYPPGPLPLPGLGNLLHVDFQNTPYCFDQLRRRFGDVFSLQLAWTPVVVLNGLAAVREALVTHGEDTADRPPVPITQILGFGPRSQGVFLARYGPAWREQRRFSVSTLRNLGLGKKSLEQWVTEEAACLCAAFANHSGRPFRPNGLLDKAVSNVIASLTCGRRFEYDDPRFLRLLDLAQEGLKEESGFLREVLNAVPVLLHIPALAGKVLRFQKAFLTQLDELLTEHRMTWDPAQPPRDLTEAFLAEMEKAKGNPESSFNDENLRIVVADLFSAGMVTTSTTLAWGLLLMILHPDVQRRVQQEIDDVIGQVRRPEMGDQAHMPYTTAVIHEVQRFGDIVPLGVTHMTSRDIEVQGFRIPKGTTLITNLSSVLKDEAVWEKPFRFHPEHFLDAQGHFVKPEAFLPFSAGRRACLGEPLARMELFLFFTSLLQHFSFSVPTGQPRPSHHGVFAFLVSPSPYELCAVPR
Cytochrome P450 2C19, sequence (P33261 whole entry): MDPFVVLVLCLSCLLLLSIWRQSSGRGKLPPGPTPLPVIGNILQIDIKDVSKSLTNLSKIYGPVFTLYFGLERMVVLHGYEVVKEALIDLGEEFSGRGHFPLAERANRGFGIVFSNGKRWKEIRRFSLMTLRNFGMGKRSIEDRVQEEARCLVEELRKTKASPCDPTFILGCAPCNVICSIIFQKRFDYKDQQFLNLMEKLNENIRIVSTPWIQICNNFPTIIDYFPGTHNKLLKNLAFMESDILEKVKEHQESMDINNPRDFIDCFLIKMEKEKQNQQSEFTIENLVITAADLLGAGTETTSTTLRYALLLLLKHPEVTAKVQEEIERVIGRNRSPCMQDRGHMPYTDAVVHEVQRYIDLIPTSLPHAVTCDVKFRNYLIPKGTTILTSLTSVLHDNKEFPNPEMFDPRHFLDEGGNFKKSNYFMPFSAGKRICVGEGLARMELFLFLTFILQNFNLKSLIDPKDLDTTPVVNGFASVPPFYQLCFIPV
Cytochrome P450 2C9, sequence (P11712 whole entry): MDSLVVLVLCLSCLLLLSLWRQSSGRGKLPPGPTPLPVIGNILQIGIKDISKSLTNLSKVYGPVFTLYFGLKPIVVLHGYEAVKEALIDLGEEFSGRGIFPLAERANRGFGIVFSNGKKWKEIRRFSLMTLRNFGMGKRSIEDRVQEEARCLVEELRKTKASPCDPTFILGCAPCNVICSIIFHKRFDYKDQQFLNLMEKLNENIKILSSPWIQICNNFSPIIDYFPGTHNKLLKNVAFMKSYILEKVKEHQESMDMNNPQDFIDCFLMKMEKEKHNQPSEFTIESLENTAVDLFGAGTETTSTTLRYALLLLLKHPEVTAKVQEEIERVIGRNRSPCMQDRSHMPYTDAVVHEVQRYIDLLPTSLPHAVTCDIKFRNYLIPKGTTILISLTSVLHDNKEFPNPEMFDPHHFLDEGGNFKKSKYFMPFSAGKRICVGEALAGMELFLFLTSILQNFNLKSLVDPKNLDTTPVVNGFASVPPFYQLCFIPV
Cytochrome P450 3A4, sequence (P08684 whole entry): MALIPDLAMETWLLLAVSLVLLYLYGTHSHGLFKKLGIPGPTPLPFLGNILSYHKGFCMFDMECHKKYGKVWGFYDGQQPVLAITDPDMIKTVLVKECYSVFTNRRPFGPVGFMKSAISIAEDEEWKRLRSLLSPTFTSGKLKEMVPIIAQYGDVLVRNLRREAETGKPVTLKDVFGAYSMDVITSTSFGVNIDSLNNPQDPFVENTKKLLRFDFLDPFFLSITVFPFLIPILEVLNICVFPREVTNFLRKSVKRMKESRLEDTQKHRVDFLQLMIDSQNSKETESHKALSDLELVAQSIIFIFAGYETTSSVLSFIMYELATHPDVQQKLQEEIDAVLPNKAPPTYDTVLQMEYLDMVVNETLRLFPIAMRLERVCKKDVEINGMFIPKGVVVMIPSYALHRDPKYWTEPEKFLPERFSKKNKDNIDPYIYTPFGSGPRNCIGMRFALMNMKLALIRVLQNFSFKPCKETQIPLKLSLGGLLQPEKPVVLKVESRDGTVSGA

SMILES	Ki (Glucocorticoid receptor [1])	Ki (Glucocorticoid receptor [2])	further results
O=c1[nH]c(=O)c(Cc2ccccc2Cl)c([C@H]2CC[C@@H](c3ccccc3)CC2)[nH]1	37 nM	7 nM	–
O=c1[nH]c(=O)c(Cc2ccc(Cl)cc2Cl)c([C@H]2CC[C@@H](c3ccccc3)CC2)[nH]1	44 nM	11 nM	–
Cn1c(=O)[nH]c([C@H]2CC[C@@H](c3ccccc3)CC2)c(Cc2cccc(C(F)(F)F)c2)c1=O	162 nM	16 nM	–
O=c1[nH]c(=O)c(Cc2ncccn2)c([C@H]2CC[C@@H](c3ccccc3)CC2)[nH]1	> 3000 nM	400 nM	–
O=c1[nH]c(=O)c(Cc2cc(Cl)ccc2Cl)c([C@H]2CC[C@@H](c3ccccc3)CC2)[nH]1	23 nM	8 nM	–
O=c1[nH]c(=O)c(Cc2cccc(C(F)(F)F)c2)c([C@H]2CC[C@@H](c3ccccc3)CC2)[nH]1	24 nM	8 nM	Activity (Rattus norvegicus [3]): -23.7 g; Activity (Rattus norvegicus [4]): -23.6 g; Activity (Rattus norvegicus [5]): -10.2 g; Activity (Rattus norvegicus [6]): 25.6 g; Activity (Rattus norvegicus [7]): 9.8 g; fraction unbound [8]: < 0.001; fraction unbound [9]: < 0.001; half-life [10]: 1.8 h; bioavailability [11]: 20%; clearance [12]: 22 mL/min/kg; inhibition (INH) (Cytochrome P450 2C19): Not Active; Stability (Liver microsomes [13]): Stable; Stability (Liver microsomes [14]): Stable; inhibition (INH) (Cytochrome P450 1A2): Not Active; inhibition (INH) (Cytochrome P450 2C9): Not Active; inhibition (INH) (Cytochrome P450 3A4): Not Active; inhibition (INH) (Cytochrome P450 2D6): Not Active
O=c1[nH]c(=O)c(Cc2c(Cl)cccc2Cl)c([C@H]2CC[C@@H](c3ccccc3)CC2)[nH]1	67 nM	11 nM	–
COCCn1c(=O)[nH]c([C@H]2CC[C@@H](c3ccccc3)CC2)c(Cc2cccc(C(F)(F)F)c2)c1=O	–	> 50 nM	–
CCc1ccccc1Cc1c(=O)[nH]c(=O)[nH]c1[C@H]1CC[C@@H](c2ccccc2)CC1	78 nM	19 nM	–
O=c1[nH]c(=O)c(Cc2cccc(Cl)c2Cl)c([C@H]2CC[C@@H](c3ccccc3)CC2)[nH]1	25 nM	5 nM	–
COc1ccccc1Cc1c(=O)[nH]c(=O)[nH]c1[C@H]1CC[C@@H](c2ccccc2)CC1	56 nM	9 nM	–
Cc1cccc(Cc2c(=O)n(C)c(=O)[nH]c2[C@H]2CC[C@@H](c3ccccc3)CC2)c1	39 nM	19 nM	–
O=c1[nH]c(=O)c(Cc2cccc(C(F)(F)F)n2)c([C@H]2CC[C@@H](c3ccccc3)CC2)[nH]1	47 nM	18 nM	–
O=c1[nH]c([C@H]2CC[C@@H](c3ccccc3)CC2)c(Cc2cccc(C(F)(F)F)c2)c(=O)n1CCO	> 3000 nM	98 nM	–
CS(=O)(=O)c1ccccc1Cc1c(=O)[nH]c(=O)[nH]c1[C@H]1CC[C@@H](c2ccccc2)CC1	–	557 nM	–
Cn1c(=O)[nH]c([C@H]2CC[C@@H](c3ccccc3)CC2)c(Cc2ccccc2)c1=O	57 nM	24 nM	–
Cc1cccc(Cc2c(=O)n(CCN(C)C)c(=O)[nH]c2[C@H]2CC[C@@H](c3ccccc3)CC2)c1	> 300 nM	9 nM	–
O=c1[nH]c(N2CCC(c3ccccc3)CC2)c(Cc2ccccc2)c(=O)[nH]1	–	8 nM	inhibition (INH) (Cytochrome P450 2C19): Not Active; inhibition (INH) (Cytochrome P450 1A2): Not Active; inhibition (INH) (Cytochrome P450 2C9): Not Active; inhibition (INH) (Cytochrome P450 3A4): Not Active; inhibition (INH) (Cytochrome P450 2D6): Not Active; Stability (Liver): Stable

More lines, main results first:

Ki (Glucocorticoid receptor [1])	Ki (Glucocorticoid receptor [2])	SMILES	further results
> 3000 nM	> 1500 nM	Cn1nccc1Cc1c(=O)[nH]c(=O)[nH]c1[C@H]1CC[C@@H](c2ccccc2)CC1	–
44 nM	21 nM	Cc1ccnc(Cc2c(=O)[nH]c(=O)[nH]c2[C@H]2CC[C@@H](c3ccccc3)CC2)c1	–
–	32 nM	O=c1[nH]c(=O)c(Cc2ccccc2)c([C@H]2CC[C@@H](c3ccccc3)CC2)[nH]1	–
> 3000 nM	> 50 nM	Cc1cc(Cc2c(=O)[nH]c(=O)[nH]c2[C@H]2CC[C@@H](c3ccccc3)CC2)ccn1	–
119 nM	28 nM	Cc1csc(Cc2c(=O)[nH]c(=O)[nH]c2[C@H]2CC[C@@H](c3ccccc3)CC2)n1	–
21 nM	3 nM	Cc1cccc(Cc2c(=O)[nH]c(=O)[nH]c2[C@H]2CC[C@@H](c3ccccc3)CC2)c1	–
44 nM	4 nM	O=c1[nH]c(=O)c(Cc2ccccc2)c([C@H]2CC[C@H](c3ccccc3)CC2)[nH]1	–
116 nM	49 nM	O=c1[nH]c(=O)c(Cc2ncccc2Cl)c([C@H]2CC[C@@H](c3ccccc3)CC2)[nH]1	–
337 nM	188 nM	O=c1[nH]c(=O)c(Cc2ccccn2)c([C@H]2CC[C@@H](c3ccccc3)CC2)[nH]1	–
57 nM	22 nM	Cc1cccc(Cc2c(=O)[nH]c(=O)[nH]c2[C@H]2CC[C@@H](c3ccccc3)CC2)n1	–
> 300 nM	139 nM	O=c1[nH]c(=O)c(Cc2nccs2)c([C@H]2CC[C@@H](c3ccccc3)CC2)[nH]1	–
